Columns and labels:
[1] = system: Th17 cells; assay: Th17 differentiation in the presence of plate bound integrin αvβ3, cytokine production by FACS; type: cell-based, mice; conditions: 10 ug/ml, BSA as control
Method: FIG. 40. […] Anti-CD3/CD28 beads are used at a ratio of 1:1. Naïve T cells were differentiated into pathogenic or non-pathogenic Th17 cells in vitro with anti-CD3/CD28 Dynabeads (Thermo Fisher Scientific) in the presence of plate bound integrin avb3 (10 ug/ml) or BSA (10 ug/ml) as control. Cytokine production from Th17 cells were measured by FACS on day 4.
Role of Gp49 Ligand Integrin αvβ3. Integrin αvβ3 is a known ligand of ILT-3 that induces human mast cell degranulation in a Gp49b dependent way. To determine the expression pattern of integrin αvβ3, FACs analysis was performed on various immune cell subsets. CD4^+CD44^loCD62L^hi naïve CD4 T cells were sorted by FACS and cultured in vitro with plate-bound anti-CD3 (2 ug/ml) and anti-CD28 (2 ug/ml) plus the following polarizing cytokines: IL12 (20 ng/ml) for Th1 cells; IL4 (20 ng/ml) for Th2 cells; TGFb (5 ng/ml) for iTreg cells; IL27 (25 ng/ml) for Tr1 cells; TGFb (2 ng/ml) and IL6 (25 ng/ml) for non-pathogenic Th17; IL1 (20 ng/ml), IL6 (25 ng/ml) and IL23 (20 ng/ml) for pathogenic Th17. Expression of αv and β3 integrin were analyzed by FACS and qPCR on day 4. […] Stained cells were analyzed by FACS. […] Stained cells were analyzed by FACS. […] Next, the effect of plate-bound integrin was determined. […] Cytokine production from Th17 cells was measured by FACS on day 4.

[2] = system: Th17 cells; assay: Binding of recombinant His-tagged integrin αvβ3 to Th17 cells (FACS); set-up: species or system mice; conditions: pathogenic and non-pathogenic Th17
Method: (§1) FIG. 38. Integrin avb3 doesn't bind to Th17 cells (in Hank's balanced salt solution ((HBSS)) in the presence of Ca2+ and Mg2+. In vitro differentiated pathogenic and non-pathogenic Th17 cells were incubated with recombinant His-tagged integrin avb3 in HBSS buffer at room temperature for 30 min, washed twice, and then incubated with anti-His antibody for 10 min. Stained cells were analyzed by FACS.
as §1, with “FIG. 39.” for “FIG. 38.”, “(in phosphate buffered saline ((PBS))” for “(in Hank's balanced salt solution ((HBSS))”, “the absence” for “the presence”, “integrin αvβ3” for “integrin avb3”, “in PBS” for “in HBSS”
Role of Gp49 Ligand Integrin αvβ3. Integrin αvβ3 is a known ligand of ILT-3 that induces human mast cell degranulation in a Gp49b dependent way. To determine the expression pattern of integrin αvβ3, FACs analysis was performed on various immune cell subsets. […] Expression of αv and β3 integrin were analyzed by FACS and qPCR on day 4. […] Stained cells were analyzed by FACS. […] Stained cells were analyzed by FACS. […] Next, the effect of plate-bound integrin was determined. […] Cytokine production from Th17 cells was measured by FACS on day 4.

[3] = system: naïve CD4 T cells; assay: Gp49 expression on naïve CD4 T cells cultured with polarizing cytokines (FACS day 3); type: cell-based, mice; conditions: plate-bound anti-CD3/anti-CD28 plus polarizing cytokines
[4] = system: Factor VII; conditions: LNP siRNA systems containing these lipids; cited from earlier work
[5] = system: naïve CD4+ and CD8+ T cells; assay: In vitro T-cell differentiation with IL-27: co-inhibitory receptor expression by real-time PCR and flow cytometry; type: cell-based, mice
Description: FIG. 1A-1M. illustrates that IL-27 induces multiple co-inhibitory receptors on CD4^+ and CD8^+ T cells. CD4^+ and CD8^+ tumor-infiltrating lymphocytes (TILs) harvested from wild type (WT) mice bearing B16F10 melanoma tumors. FIG. 1A) Naïve T cells from either WT or IL-27ra deficient mice (IL27ra KO) were stimulated with anti-CD3/CD28 in the presence or absence of IL-27 as indicated. Expression of the indicated co-inhibitory molecules was examined by real-time PCR at 96 hr (CD4) and 72 hr (CD8), n≥3, error bars indicate s.e.m. FIG. 1B) Surface expression of co-inhibitory receptors on T cells stimulated as in (A) was determined by flow cytometry. Representative data are shown. FIG. 1C) Co-expression analysis of co-inhibitory and co-stimulatory receptor mRNA expression as determined by single cell RNAseq (316 and 516 for CD4^+ and CD8^+ respectively). For visualization purposes negative correlation values were set to zero. FIG. 1D) Protein expression by CyTOF for 23,656 CD4^+ and 36,486 CD8^+ TILs. Co-expression was analyzed using Spearman correlation. For visualization purposes negative correlation values were set to zero. FIG. 1E) TILs were harvested from WT and IL27ra KO mice bearing B16F10 melanoma and analyzed using CyTOF. CyTOF data were analyzed using vi-SNE. Polygons indicating clusters 1, 2 (in CD8^+ T cells), 3 and 4 (in CD4^+ T cells) are shown. FIG. 1F) The within groups sum of squared error (SSE) plot. […] FIG. 1G) Gap statistics for estimating the optimal number of clusters using k-means from 1 up to 12 clusters using bootstrapping and first SE max method. […] Visualization of cluster distribution using two-dimensional non-linear embedding of the protein expression profiles by t-SNE. FIG. 1I) CyTOF expression analysis of co-inhibitory and co-stimulatory receptors in TILs harvested from B16F10 melanoma tumor-bearing WT and […] mice from FIG. 1A and FIG. 1J using t-SNE. FIG. 1J) vi-SNE plot highlighting the distribution of CD8^+ TILs from WT (red) and IL27ra KO (blue) mice in clusters 1 and 2 and CD4^+ TILs from WT (red) and IL27ra KO (blue) mice in clusters 3 and 4. Pie charts show the distribution of WT or IL27ra KO CD8^+ and CD4^+ TILs in each cluster. Bar graphs show the mean of signal intensity for PD-1, Tim-3, Lag-3, and TIGIT from WT and IL27ra KO TILs. Error bars are the standard error and p-values for significance are calculated using standard t-test (**p<0.01). FIG. 1K) Expression of PD-1, Tim-3, Lag-3, TIGIT, and IL-10 on CD8^+ TILs obtained from WT and IL27ra KO mice bearing B16F10 melanoma was determined by flow cytometry. Thy1.1-IL-10 reporter mice crossed with WT and IL27ra KO mice were used for IL-10 expression analysis. FIG. 1L, FIG. 1M) Impact of IL-27 signaling on co-inhibitory receptor expression in TILs. Pie charts show the distribution of CD8^+ and CD4^+ TILs from WT and IL27ra KO mice bearing B16F10 melanoma between clusters 1 and 2 for CD8^+ and between clusters 3 and 4 for CD4^+ TILs as determined by k-means clustering of CyTOF protein expression data.
Flow cytometry: Single cell suspensions were stained with antibodies against CD4 (RM4-5), CD8 (53-6.7), PD-1 (RMP1-30), Lag-3 (C9B7W), TIGIT (GIGD7), and Tim-3 (5D12), Procr (eBio1560), and Pdpn (8.1.1) and were obtained from BioLegend (San Diego, Calif.). Fixable viability dye eF506 (eBioscience) was used to exclude dead cells. For intra-cytoplasmic cytokine staining, cells were stimulated with (PMA) (50 ng/ml, Sigma-Aldrich, MO), ionomycin (1 μg/ml, Sigma-Aldrich, MO). Permeabilized cells were then stained with antibodies against IL-2, TNF-α, IFN-γ or IL-10. All data were collected on a BD LSR II (BD Biosciences) and analyzed with FlowJo software (Tree Star).
In vitro T-cell differentiation: CD4^+ and CD8^+ T cells were purified from spleen and lymph nodes using anti-CD4 microbeads (Miltenyi Biotech) then stained in PBS with 0.5% BSA for 15 min on ice with anti-CD4, anti-CD8, anti-CD62L, and anti-CD44 antibodies (all from Biolegend, CA). […]

[6] = activation of naïve CD4+ and CD8+ T cells in vitro in the presence of IL-27
[7] = anti-CD3/CD28 in the presence of IL-27, CD4+ and CD8+ T cells

Integrin αvβ3: recombinant His-tagged integrin αvβ3, a known ligand of ILT-3
effect on Th17 cells (cytokine production, FACS day 4) [1]: does not appear to have much effect | binding to Th17 cells ([2]; HBSS, in the presence of Ca2+ and Mg2+): doesn't bind | binding to Th17 cells ([2]; PBS, in the absence of Ca2+ and Mg2+): doesn't bind

TGFb
Gp49 expression [3]: inhibited

CCCCC/C=C\C/C=C\CCCCCCCC(=O)OCC(CN(C)C)OC(=O)CCCCCCC/C=C\C/C=C\CCCCC (centres unmarked) [DLinDAP, 1,2-dilineoyl-3-dimethylammonium-propane]
gene silencing potency series [4]: DLinKC2-DMA>DLinKDMA>DLinDMA>>DLinDAP

CCCCC/C=C\C/C=C\CCCCCCCCOCC(CN(C)C)OCCCCCCCC/C=C\C/C=C\CCCCC (centres unmarked) [DLinDMA, 1,2-dilinoleyloxy-3-N,N-dimethylaminopropane]
gene silencing potency series [4]: DLinKC2-DMA>DLinKDMA>DLinDMA>>DLinDAP

1,2-dilinoleyloxy-keto-N,N-dimethyl-3-aminopropane [DLinKDMA]
gene silencing potency series [4]: DLinKC2-DMA>DLinKDMA>DLinDMA>>DLinDAP

CCCCC/C=C\C/C=C\CCCCCCCCC1(CCCCCCCC/C=C\C/C=C\CCCCC)OCC(CCN(C)C)O1 (centres unmarked) [DLinKC2-DMA, 1,2-dilinoleyl-4-(2-dimethylaminoethyl)-[1,3]-dioxolane]
gene silencing potency series [4]: DLinKC2-DMA>DLinKDMA>DLinDMA>>DLinDAP

B1: IL-27: heterodimeric cytokine, member of the IL-12 family; rmIL-27 (25 ng/ml) (eBioscience) used in vitro (protein)
chain 1: FPTDPLSLQELRREFTVSLYLARKLLSEVQGYVHSFAESRLPGVNLDLLPLGYHLPNVSLTFQAWHHLSDSERLCFLATTLRPFPAMLGGLGTQGTWTSSEREQLWAMRLDLRDLHRHLRFQVLAAGFKCSKEEEDKEEEEEEEEEEKKLPLGALGGPNQVSSQVSWPQLLYTYQLLHSLELVLSRAVRDLLLLSLPRRPGSAWDS
chain 2: YTETALVALSQPRVQCHASRYPVAVDCSWTPLQAPNSTRSTSFIATYRLGVATQQQSQPCLQRSPQASRCTIPDVHLFSTVPYMLNVTAVHPGGASSSLLAFVAERIIKPDPPEGVRLRTAGQRLQVLWHPPASWPFPDIFSLKYRLRYRRRGASHFRQVGPIEATTFTLRNSKPHAKYCIQVSAQDLTDYGKPSDWSLPGQVESAPHKP
Pdpn expression by qPCR and flow cytometry [5, 6]: induced | Procr expression by qPCR and flow cytometry [5, 6]: induced | Lag-3 expression, mRNA and protein level [5, 7]: induced | TIGIT expression, mRNA and protein level [5, 7]: induced | Tim-3 (Havcr2) expression, mRNA and protein level [5, 7]: induced | PD-1 (Pdcd1) expression ([5]; in vitro, anti-CD3/CD28 in the presence of IL-27): not affected

— patent US12447213B2, “Modulation of novel immune checkpoint targets” (The Brigham and Women's Hospital, Inc., priority 2016, dated 2025)
